Target: T1, GPR119 (WT mouse descending colon mucosa) (Mus musculus, UniProt Q7TQP3)
T1 construct: native full-length receptor in L-cells of intact mouse colonic mucosa (Ussing chamber); no recombinant protein
T1 sequence (Q7TQP3 1-335): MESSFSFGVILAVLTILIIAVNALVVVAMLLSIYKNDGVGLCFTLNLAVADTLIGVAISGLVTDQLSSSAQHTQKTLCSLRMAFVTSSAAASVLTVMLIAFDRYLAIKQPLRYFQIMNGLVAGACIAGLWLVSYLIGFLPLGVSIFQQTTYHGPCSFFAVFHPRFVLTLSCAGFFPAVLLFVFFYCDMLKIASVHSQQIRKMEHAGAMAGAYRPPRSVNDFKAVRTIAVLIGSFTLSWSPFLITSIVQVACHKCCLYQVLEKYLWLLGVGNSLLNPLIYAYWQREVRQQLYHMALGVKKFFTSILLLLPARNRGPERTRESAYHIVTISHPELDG
Experiment: short-circuit current (Isc) in native mouse descending colon mucosa, Ussing chamber
Conditions: agonist, apical addition, indirect tissue read-out (PYY-mediated fall in Isc) after 10 nM VIP, 11.1 mM glucose
Description: short-circuit current (Isc) in native mouse descending colon mucosa, Ussing chamber on GPR119 (WT mouse descending colon mucosa)

| EC50 | EC50 (partial agonist) | Compound |
| --- | --- | --- |
| 4900 nM |  | CCCCCCCC/C=C\CCCCCCCC(=O)OC(CO)CO [2-OG] |
|  | 1.2 nM | CC(C)c1noc(C2CCN(c3ncnc(Nc4ccc(S(C)(=O)=O)cc4F)c3[N+](=O)[O-])CC2)n1 [AR231453] |
| 14700 nM |  | CCCCCCCC/C=C\CCCCCCCC(=O)NCCO [OEA] |
| 27.7 nM |  | AR435707 |
| 170 nM |  | AR440006 |
